Key:
Format in all cases: functional
MDA-MB-468 = experiment: Cytotoxicity against human MDA-MB-468 cells assessed as cellular growth at 10 uM by SRB assay
MCF7 = experiment: Cytotoxicity against human MCF7 cells assessed as cellular growth at 10 uM by SRB assay
TK-10 = experiment: Cytotoxicity against human TK10 cells assessed as cellular growth at 10 uM by SRB assay
ACHN = experiment: Cytotoxicity against human ACHN cells assessed as cellular growth at 10 uM by SRB assay
CAKI-1 = experiment: Cytotoxicity against human Caki1 cells assessed as cellular growth at 10 uM by SRB assay
[1] = Cytotoxicity against human NCI-ADR-RES cells assessed as cellular growth at 10 uM by SRB assay
OVCAR-3 = experiment: Cytotoxicity against human OVCAR3 cells assessed as cellular growth at 10 uM by SRB assay
SNB-75 = experiment: Cytotoxicity against human SNB75 cells assessed as cellular growth at 10 uM by SRB assay
SF-268 = experiment: Cytotoxicity against human SF268 cells assessed as cellular growth at 10 uM by SRB assay
SW-620 = experiment: Cytotoxicity against human SW620 cells assessed as cellular growth at 10 uM by SRB assay
HCT-15 = experiment: Cytotoxicity against human HCT15 cells assessed as cellular growth at 10 uM by SRB assay
HCC 2998 = experiment: Cytotoxicity against human HCC2998 cells assessed as cellular growth at 10 uM by SRB assay
NCI-H522 = experiment: Cytotoxicity against human NCI-H522 cells assessed as cellular growth at 10 uM by SRB assay
NCI-H460 = experiment: Cytotoxicity against human NCI-H460 cells assessed as cellular growth at 10 uM by SRB assay
NCI-H226 = experiment: Cytotoxicity against human NCI-H226 cells assessed as cellular growth at 10 uM by SRB assay
NCI-H23 = experiment: Cytotoxicity against human NCI-H23 cells assessed as cellular growth at 10 uM by SRB assay
HOP-62 = experiment: Cytotoxicity against human HOP62 cells assessed as cellular growth at 10 uM by SRB assay
A549 = experiment: Cytotoxicity against human A549 cells assessed as cellular growth at 10 uM by SRB assay
K562 = experiment: Cytotoxicity against human K562 cells assessed as cellular growth at 10 uM by SRB assay
CCRF-CEM = experiment: Cytotoxicity against human CCRF-CEM cells assessed as cellular growth at 10 uM by SRB assay

Cc1ccc(NC(=O)c2sc3nc4c(cc3c2N)C(=O)CCC4)c(Br)c1
Activity (MDA-MB-468): 106.56%
Activity (MCF7): 96.02%
Activity (TK-10): 131.53%
Activity (ACHN): 107.36%
Activity (CAKI-1): 94.2%
Activity [1]: 102.67%
Activity (OVCAR-3): 101.82%
Activity (SNB-75): 107.29%
Activity (SF-268): 100.61%
Activity (SW-620): 97.41%
Activity (HCT-15): 103.46%
Activity (HCC 2998): 102.39%
Activity (NCI-H522): 103.96%
Activity (NCI-H460): 101.57%
Activity (NCI-H226): 99.85%
Activity (NCI-H23): 102.24%
Activity (HOP-62): 95.12%
Activity (A549): 92.09%
Activity (K562): 104.86%
Activity (CCRF-CEM): 103.07%

O=S(=O)(Oc1ccc(-c2cnc3ccccc3n2)cc1)c1ccc2ccccc2c1
Activity (MDA-MB-468): 85.1%
Activity (MCF7): 103.49%
Activity (TK-10): 94.33%
Activity (ACHN): 118.15%
Activity (CAKI-1): 105.66%
Activity [1]: 104.07%
Activity (OVCAR-3): 107.67%
Activity (SNB-75): 119.77%
Activity (SF-268): 104.06%
Activity (SW-620): 100.52%
Activity (HCT-15): 115.04%
Activity (HCC 2998): 107.48%
Activity (NCI-H522): 86.38%
Activity (NCI-H460): 96.28%
Activity (NCI-H226): 98.79%
Activity (NCI-H23): 100.37%
Activity (HOP-62): 104.1%
Activity (A549): 102.43%
Activity (K562): 90.95%
Activity (CCRF-CEM): 90.35%

N#Cc1ccc(-n2nnc3ccccc32)cc1C#N
Activity (MDA-MB-468): 99.52%
Activity (MCF7): 82.05%
Activity (TK-10): 133.56%
Activity (ACHN): 102.68%
Activity (CAKI-1): 85.44%
Activity [1]: 100.66%
Activity (OVCAR-3): 101.15%
Activity (SNB-75): 120.55%
Activity (SF-268): 105%
Activity (SW-620): 94.36%
Activity (HCT-15): 99.78%
Activity (HCC 2998): 103.78%
Activity (NCI-H522): 88.08%
Activity (NCI-H460): 106.55%
Activity (NCI-H226): 96.73%
Activity (NCI-H23): 94%
Activity (HOP-62): 94.62%
Activity (A549): 87.19%
Activity (K562): 92.97%
Activity (CCRF-CEM): 93.15%

Clc1ccc(-c2nc(-c3cccs3)no2)c(Cl)c1
Activity (MDA-MB-468): 8.37%
Activity (MCF7): 29.22%
Activity (TK-10): 71.42%
Activity (ACHN): 99.79%
Activity (CAKI-1): 81.96%
Activity [1]: 102.9%
Activity (OVCAR-3): 99.18%
Activity (SNB-75): 63.47%
Activity (SF-268): 99.25%
Activity (SW-620): 88.07%
Activity (HCT-15): 73.54%
Activity (HCC 2998): 66.03%
Activity (NCI-H522): 91.42%
Activity (NCI-H460): 92.07%
Activity (NCI-H226): 88.68%
Activity (NCI-H23): 92.64%
Activity (HOP-62): 84.92%
Activity (A549): 91.44%
Activity (K562): 96.15%
Activity (CCRF-CEM): 85.99%

O=C(Nc1nc2ccc(Cl)cc2s1)c1ccc(Cl)cc1Cl
Activity (MDA-MB-468): 105.42%
Activity (MCF7): 98.4%
Activity (TK-10): 88.34%
Activity (ACHN): 109.65%
Activity (CAKI-1): 79.85%
Activity [1]: 98.55%
Activity (OVCAR-3): 109.17%
Activity (SNB-75): 114.42%
Activity (SF-268): 111.47%
Activity (SW-620): 111.18%
Activity (HCT-15): 100.27%
Activity (HCC 2998): 97.08%
Activity (NCI-H522): 98.66%
Activity (NCI-H460): 100.4%
Activity (NCI-H226): 101.52%
Activity (NCI-H23): 99%
Activity (HOP-62): 106.54%
Activity (A549): 95.4%
Activity (K562): 86.31%
Activity (CCRF-CEM): 99.34%

Cc1ccc(CNC(=O)c2[nH]c3ccccc3c2Cl)cc1
Activity (MDA-MB-468): 106.86%
Activity (MCF7): 98.84%
Activity (TK-10): 124.52%
Activity (ACHN): 112.34%
Activity (CAKI-1): 90.46%
Activity [1]: 92.34%
Activity (OVCAR-3): 95.55%
Activity (SNB-75): 123.78%
Activity (SF-268): 86.83%
Activity (SW-620): 89.73%
Activity (HCT-15): 106.3%
Activity (HCC 2998): 101.22%
Activity (NCI-H522): 106.22%
Activity (NCI-H460): 88.87%
Activity (NCI-H226): 96.65%
Activity (NCI-H23): 95.25%
Activity (HOP-62): 90.94%
Activity (A549): 96.66%
Activity (K562): 100.85%
Activity (CCRF-CEM): 99.93%

CC1(C)CCc2cc(-c3ccn(S(=O)(=O)c4ccccc4Cl)n3)ccc2O1
Activity (MDA-MB-468): 63.67%
Activity (MCF7): 73.21%
Activity (TK-10): 74.57%
Activity (ACHN): 98.39%
Activity (CAKI-1): 101.05%
Activity [1]: 78.37%
Activity (OVCAR-3): 93.06%
Activity (SNB-75): 99.11%
Activity (SF-268): 96.38%
Activity (SW-620): 79.15%
Activity (HCT-15): 46.19%
Activity (HCC 2998): 81.67%
Activity (NCI-H522): 77.85%
Activity (NCI-H460): 79.3%
Activity (NCI-H226): 90.58%
Activity (NCI-H23): 76.98%
Activity (HOP-62): 96.86%
Activity (A549): 80.53%
Activity (K562): 43%
Activity (CCRF-CEM): 59.83%

Oc1ccccc1-c1nc(-c2cccs2)no1
Activity (MDA-MB-468): 44.64%
Activity (MCF7): 56.48%
Activity (TK-10): 89.67%
Activity (ACHN): 98.95%
Activity (CAKI-1): 97.52%
Activity [1]: 106.13%
Activity (OVCAR-3): 108.33%
Activity (SNB-75): 90.2%
Activity (SF-268): 112.74%
Activity (SW-620): 95.69%
Activity (HCT-15): 64.4%
Activity (HCC 2998): 83.27%
Activity (NCI-H522): 96.76%
Activity (NCI-H460): 95.65%
Activity (NCI-H226): 93.28%
Activity (NCI-H23): 94.82%
Activity (HOP-62): 88.78%
Activity (A549): 99.05%
Activity (K562): 96.52%
Activity (CCRF-CEM): 91.77%

O=C(NCCc1ccccc1)c1cc2cccc([N+](=O)[O-])c2[nH]1
Activity (MDA-MB-468): 90.5%
Activity (TK-10): 102.94%
Activity (ACHN): 93.06%
Activity (CAKI-1): 87.57%
Activity [1]: 97.02%
Activity (OVCAR-3): 109%
Activity (SF-268): 106.93%
Activity (SW-620): 108.15%
Activity (HCT-15): 86.79%
Activity (HCC 2998): 105.66%
Activity (NCI-H522): 84.92%
Activity (NCI-H460): 101.23%
Activity (NCI-H226): 82.38%
Activity (NCI-H23): 92.74%
Activity (HOP-62): 90.84%
Activity (A549): 94.33%
Activity (K562): 82.43%
Activity (CCRF-CEM): 86.81%

— ChEMBL document CHEMBL2202954, “The effect of PLC-γ2 inhibitors on the growth of human tumour cells” (2012)
